From PubChem BioAssay AID1259342 (Broad Institute, 2017)
Active and inactive are the calls of the source.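 Rule for the calls: active = fitted half-maximal inhibitory concentration AC50 at most ten times the top concentration tested; inconclusive = flat fit with 30 to 70% inhibition, or unusable fit; inactive = AC50 above ten times the top concentration.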

These compounds were tested against E3 ubiquitin-protein ligase TRIM62 (Homo sapiens) (UniProt Q9BVG3) (assay: TRIM62 E3 ligase activity on CARD9 – biochemical, ubiquitin ELISA, AlphaLISA TUBE, CARD9-TRIM62 disruptor project, dose response (AID 1259342;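 for AC50: potency is for inhibitors that reduce CARD9 ubiquitylation signal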)). Settings: TRIM62-mediated CARD9 ubiquitylation, AlphaLISA TUBE detection.
Chain of E3 ubiquitin-protein ligase TRIM62 (Homo sapiens) (Q9BVG3 whole entry, looked up): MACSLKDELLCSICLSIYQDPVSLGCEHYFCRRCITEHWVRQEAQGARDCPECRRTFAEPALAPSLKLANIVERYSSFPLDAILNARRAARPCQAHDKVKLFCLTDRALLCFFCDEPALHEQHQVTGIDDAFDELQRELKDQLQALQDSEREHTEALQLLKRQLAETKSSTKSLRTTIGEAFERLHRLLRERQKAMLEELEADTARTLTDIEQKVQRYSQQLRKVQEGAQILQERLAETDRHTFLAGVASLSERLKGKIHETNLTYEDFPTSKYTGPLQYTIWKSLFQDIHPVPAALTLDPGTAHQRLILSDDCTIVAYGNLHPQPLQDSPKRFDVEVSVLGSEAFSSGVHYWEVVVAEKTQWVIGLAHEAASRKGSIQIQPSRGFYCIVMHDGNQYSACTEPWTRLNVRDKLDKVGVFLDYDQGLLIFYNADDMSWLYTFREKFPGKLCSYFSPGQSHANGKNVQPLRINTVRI

Structure (SMILES)	AC50
CC(=O)c1cccc(OCC(=O)N(C)CC(=O)NCc2ccco2)c1	1.35 µM
COc1cc(N)c(Cc2nccc3cc(OC)c(OC)cc23)cc1OC	79.5 µM
CCN(CCNC(=O)C1CCN(S(=O)(=O)c2c(C)noc2C)CC1)c1ccccc1	> 160 µM (inactive)
Cc1c(C(=O)OCC2CCCO2)[nH]c2c1C(=O)CC(c1ccco1)C2 (stereo unspecified)	38.1 µM
CC1=CCC(C(=O)O)C(C(=O)NC2CCCCC2)C1 (stereo unspecified)	47.4 µM
O=C(COC(=O)c1cc(-c2cccs2)nc2ccccc12)NCc1ccco1	26.2 µM
CCOC(=O)c1[nH]c(Cc2[nH]c(C(=O)OCC)c(C)c2C)c(C)c1C	> 160 µM (inactive)
C(=C\c1ccco1)/c1nc2ccccc2[nH]1	29 µM
O=C(COC(=O)CCC(=O)c1cccs1)NCc1ccco1	16.6 µM
COc1ccc(-c2ccc(CCC(=O)O)o2)cc1	18.1 µM
COc1ccc(S(=O)(=O)N2CCOCC2)cc1NC(=O)c1cccc(-n2cccc2)c1	3.62 µM
COc1ccc(NC(=O)c2nc(Nc3ccccc3)c3ccccc3n2)cc1	67.8 µM
CC(=O)Nc1ccc(Nc2nc(-c3nnc(-c4cccc(C)c4)o3)nc3ccccc23)cc1	19 µM

Same assay, conditions: TRIM62-mediated CARD9 ubiquitylation, AlphaLISA TUBE detection; at 38 µM (top of the series)

Structure (SMILES)	activity change, negative = inhibition
O=C(Nc1nc(-c2nc3ccccc3s2)cs1)c1ccco1	inactive

Same assay, conditions: TRIM62-mediated CARD9 ubiquitylation, AlphaLISA TUBE detection; at 80 µM (top of the series)

Structure (SMILES)	activity change, negative = inhibition
CCOc1ccc(CNc2nc(-c3nnc(-c4ccc(F)cc4)o3)nc3ccccc23)cc1	inactive
O=C(CN1CCOC1=O)N1CCC2(CCC(=O)N(CCCn3ccnc3)C2)CC1	inactive
Cc1ccc(Nc2nc(C(=O)Nc3ccc(Cl)cc3)nc3ccccc23)cc1	inactive
Nc1ccc2ncccc2c1N	inactive
O=C(NCCc1ccccc1)c1cc2cccnc2n(Cc2ccccc2)c1=O	inactive
O=C1C=C(c2ccccc2)Nc2ccccc2N1	inactive
O=C(CCc1nc(-c2ccccc2)no1)NCC1CNCCOC1 (stereo unspecified)	inactive
FC(F)(F)c1cc(Cl)c2nnc(C(F)(F)Cl)n2c1	inactive
CCOc1ccccc1NC(=O)N1CCCC(c2nccn2CCOC)C1 (stereo unspecified)	inactive
O=C(N/N=C/C=C/c1ccco1)c1cncc(Br)c1	inactive
O=C(CCN1CCOCC1)c1ccc2c(c1)OCCO2	inactive
O=[N+]([O-])c1c(NCCCO)cc(SCc2ccco2)c2nonc12	inactive
O=C1c2cccnc2C(=O)N1Cc1ccc(S(=O)(=O)NCc2ccco2)cc1	inactive
O=C(O)COCC(=O)NCc1ccco1	inactive
Cc1ccc(C2CC(=O)C3=C(C2)Nc2ccccc2NC3c2cccnc2)cc1 (stereo unspecified)	inactive
COc1ccc(S(=O)(=O)c2ccccc2)cc1NS(=O)(=O)c1cccc(C(=O)O)c1	inactive
NC(=O)C1(N2CCCCC2)CCN(c2ccc(NC(=O)c3cccc(Cl)c3)cc2C(=O)O)CC1	inactive
COc1ccc(-c2nnc(-c3nc(Nc4ccc(NC(C)=O)cc4)c4ccccc4n3)o2)cc1	inactive
Cn1ncc2c(NNC(=O)c3cc(O)cc(O)c3)ncnc21	inactive
O=C(O)c1cc(-c2ccco2)nc2ccccc12	inactive
N#CNc1nc(O)cc(=O)[nH]1	inactive
O=C(O)C(c1ccccc1)C(c1ccccc1)c1ccccc1 (stereo unspecified)	inactive
